Reference: ChEMBL document CHEMBL1150737, “Antitumor agents, 90. Bruceantinoside C, a new cytotoxic quassinoid glycoside from Brucea antidysenterica” (1987)
≈ marks a conversion by molar mass, not a printed value.

How the values were obtained:
[1] = system: L1210; test: Cytotoxicity against mouse L1210 cells; type: functional; conditions: read-out: ED50 (the source's name)
[2] = system: P388; test: Cytotoxicity against mouse P388 cells; type: functional; conditions: read-out: ED50 (the source's name)

SMILES | EC50 [1] | EC50 [2]
COC(=O)[C@]12OC[C@]34[C@H]([C@@H](O)[C@@H]1O)[C@@]1(C)C(=O)C(O[C@@H]5O[C@H](CO)[C@@H](O)[C@H](O)[C@H]5O)=C[C@@H](C)[C@@H]1C[C@H]3OC(=O)[C@H](OC(=O)/C=C(\C)C(C)C)[C@@H]24 [Yadanzioside N] | 4.56 µg/mL (≈ 6.42 µM) | 2.24 µg/mL (≈ 3.15 µM)
COC(=O)[C@]12OC[C@]34[C@H]([C@@H](O)[C@@H]1O)[C@@]1(C)C=C(O[C@@H]5O[C@H](CO)[C@@H](O)[C@H](O)[C@H]5O)C(=O)[C@@H](C)[C@@H]1C[C@H]3OC(=O)[C@H](OC(=O)/C=C(\C)C(C)(C)OC(C)=O)[C@@H]24 [Yadanzioside G] | 2.58 µg/mL (≈ 3.36 µM) | 1.25 µg/mL (≈ 1.63 µM)
COC(=O)[C@]12OC[C@]34[C@H]([C@@H](O)[C@@H]1O)[C@@]1(C)C(=O)C(O[C@@H]5O[C@H](CO)[C@@H](O)[C@H](O)[C@H]5O)=C[C@@H](C)[C@@H]1C[C@H]3OC(=O)[C@H](OC(=O)/C=C(\C)C(C)(C)OC(C)=O)[C@@H]24 [Bruceantinoside C] | 3.5 µg/mL (≈ 4.55 µM) | 2.12 µg/mL (≈ 2.76 µM)
O=c1[nH]cc(F)c(=O)[nH]1 [FLUOROURACIL] | 1.94 µg/mL (≈ 14.9 µM) | 3.72 µg/mL (≈ 28.6 µM)
